Where no end group is shown, it is not given here.
Assays:
[1] = test system: E. coli ATCC 25922; assay: Salt sensitivity assay (MIC); format: cell-based, Escherichia coli; conditions: for MIC, FeCl3: 4 μM FeCl3; for MIC, NH4Cl: 6 μM NH4Cl; for MIC, ZnCl2: 8 μM ZnCl2; for MIC, MgCl2: 1 mM MgCl2; for MIC, CaCl2: 2 mM CaCl2; for MIC, KCl: 4.5 mM KCl; for MIC, NaCl: 150 mM NaCl; for MIC, Control: no added salt, three independent assays
Experimental: (§1) The antimicrobial activities of the peptides were measured using a method adapted from the National Committee for Clinical Laboratory Standards (NCCLS) with some modifications ([Chou et al., 2016]). The specific procedure for these assays has been previously described. In brief, the bacterial cells were grown to a mid-logarithmic phase and diluted in MHB to an ultimate concentration of 0.5–1 × 10^6 CFU mL^–1. Subsequently, the peptides were consecutively diluted in a 0.2% BSA solution and then added to a bacterial solution in a 96-well plate at identical volumes. After incubation for 24 h at 37°C, the MICs were determined to be the lowest peptide concentration that inhibited 95% of the bacterial growth by monitoring the absorbance at 492 nm using a microplate reader. Subsequently, 50 μL of each incubation mixture was further transferred to agar plates and incubated overnight. The minimum bactericidal concentrations (MBCs) were determined as the lowest peptide concentration that killed greater than 99.9% of the bacterial cells. Every assay was reproduced more than 3 times.
(§2) The salt sensitivities of the peptides were determined. E. coli ATCC 25922 and S. aureus ATCC 29213 were incubated in the presence of various ultimate concentrations of physiological salts (150 mM NaCl, 4.5 mM KCl, 6 μM NH4Cl, 8 μM ZnCl2, 1 mM MgCl2, 2mM CaCl2, and 4 μM FeCl3) according to our previous protocol ([Yang et al., 2019]). These tests were performed under the MICs, and three independent assays were performed.

[2] = test system: S. pullorum 7913; format: cell-based, Salmonella pullorum; conditions: 7913, 24 h
Experimental: as §1

[3] = test system: B. subtilis 63501; format: cell-based, Bacillus subtilis; conditions: 63501, 24 h
Experimental: as §1

[4] = test system: E. coli 25922; format: cell-based, Escherichia coli; conditions: 25922, 24 h
Experimental: as §1

[5] = test system: E. coli O78; format: cell-based, Escherichia coli; conditions: O78, 24 h
Experimental: as §1

[6] = test system: E. coli UB1005; format: cell-based, Escherichia coli; conditions: UB1005, 24 h
Experimental: as §1

[7] = test system: S. aureus 29213; assay: Salt sensitivity assay (MIC); format: cell-based, Staphylococcus aureus; conditions: for MIC, FeCl3: 4 μM FeCl3; for MIC, NH4Cl: 6 μM NH4Cl; for MIC, ZnCl2: 8 μM ZnCl2; for MIC, MgCl2: 1 mM MgCl2; for MIC, CaCl2: 2 mM CaCl2; for MIC, KCl: 4.5 mM KCl; for MIC, NaCl: 150 mM NaCl; for MIC, Control: no added salt, three independent assays
Experimental: as §1, §2

[8] = test system: Listeria monocytogenes CGMCC 1.1075; format: cell-based; conditions: CGMCC 1.1075, 24 h
Experimental: as §1

[9] = test system: all of the tested bacterial strains; assay: Geometric mean of MICs, all tested bacterial strains; format: cell-based; conditions: for GM, All: geometric mean of MICs across all tested strains; for TI, All: therapeutic index TI = MHC/GM MIC
Text: The antimicrobial activity of AMPs is the most decisive index for evaluating the clinical application of antimicrobial drugs. Many antimicrobial agents inhibit bacterial growth rather than kill the bacteria quickly, and long-term infections are pathogens that are not completely killed, which results in bacterial severe drug resistance. […] The geometric mean (GM) values of the MICs/MBCs of the two series across all of the tested bacterial strains are represented in Table 3, which depicts the average bacteriostatic/bactericidal level of a peptide.
as §1

[10] = test system: E. faecalis 29212; format: cell-based, Enterococcus faecalis; conditions: 29212, 24 h
Experimental: as §1

[11] = test system: MRSA 43300; format: cell-based, methicillin-resistant S. aureus; conditions: 43300, 24 h
Experimental: as §1

[12] = test system: P. aeruginosa 27853; format: cell-based, Pseudomonas aeruginosa; conditions: 27853, 24 h
Experimental: as §1

[13] = test system: Gram-negative bacteria; conditions: for GM, Gram-negative bacteria: geometric mean of MICs (Table 3); for TI, Gram-negative bacteria: therapeutic index TI = MHC/GM MIC
Experimental: (§3) The antimicrobial activity of AMPs is the most decisive index for evaluating the clinical application of antimicrobial drugs.
as §1, with “The minimum bactericidal concentrations (MBCs) were determined as the lowest peptide concentration that killed greater than 99.9% of the bacterial cells.” left out

[14] = test system: Gram-positive bacteria; conditions: for GM, Gram-positive bacteria: geometric mean of MICs (Table 3); for TI, Gram-positive bacteria: therapeutic index TI = MHC/GM MIC
Experimental: as §3
as §1, with “The minimum bactericidal concentrations (MBCs) were determined as the lowest peptide concentration that killed greater than 99.9% of the bacterial cells.” left out

[15] = test system: S. epidermidis 12228; format: cell-based, Staphylococcus epidermidis; conditions: 12228, 24 h
Experimental: as §1

[16] = test system: S. aureus 29213; format: cell-based, Staphylococcus aureus; conditions: 29213, 24 h
Experimental: as §1

[17] = test system: S. aureus 25923; format: cell-based, Staphylococcus aureus; conditions: 25923, 24 h
Experimental: as §1

[18] = test system: S. typhimurium 7731; format: cell-based, Salmonella typhimurium; conditions: 7731, 24 h
Experimental: as §1

[19] = test system: S. typhimurium 14028; format: cell-based, Salmonella typhimurium; conditions: 14028, 24 h
Experimental: as §1

RRWWWRWRW-NH2 [W8]
MIC, FeCl3 [1]: 2 µM | MIC, NH4Cl [1]: 4 µM | MIC, ZnCl2 [1]: 4 µM | MIC, MgCl2 [1]: 16 µM | MIC, CaCl2 [1]: 8 µM | MIC, KCl [1]: 16 µM | MIC, NaCl [1]: 32 µM | MIC, Control [1]: 4 µM | MBC [2]: 4 µM | MIC [2]: 2 µM | MBC [3]: 2 µM | MIC [3]: 1 µM | MBC [4]: 8 µM | MIC [4]: 4 µM | MBC [5]: 8 µM | MIC [5]: 4 µM | MBC [6]: 8 µM | MIC [6]: 4 µM | MIC, FeCl3 [7]: 2 µM | MIC, NH4Cl [7]: 4 µM | MIC, ZnCl2 [7]: 4 µM | MIC, MgCl2 [7]: 4 µM | MIC, CaCl2 [7]: 4 µM | MIC, KCl [7]: 1 µM | MIC, NaCl [7]: 2 µM | MIC, Control [7]: 2 µM | MBC [8]: 4 µM | MIC [8]: 2 µM | GM, All [9]: 2.71 µM | TI, All [9]: 47.23 | MBC [10]: 8 µM | MIC [10]: 4 µM | MBC [11]: 4 µM | MIC [11]: 2 µM | MBC [12]: 8 µM | MIC [12]: 4 µM | GM, Gram-negative bacteria [13]: 3.43 µM | TI, Gram-negative bacteria [13]: 37.32 | GM, Gram-positive bacteria [14]: 2.00 µM | TI, Gram-positive bacteria [14]: 64.00 | MBC [15]: 4 µM | MIC [15]: 2 µM | MBC [16]: 4 µM | MIC [16]: 2 µM | MBC [17]: 4 µM | MIC [17]: 2 µM | MBC [18]: 8 µM | MIC [18]: 4 µM | MBC [19]: 8 µM | MIC [19]: 4 µM

RRWWWWRRW-NH2 [W7]
MIC, FeCl3 [1]: 8 µM | MIC, NH4Cl [1]: 4 µM | MIC, ZnCl2 [1]: 4 µM | MIC, MgCl2 [1]: 4 µM | MIC, CaCl2 [1]: 8 µM | MIC, KCl [1]: 8 µM | MIC, NaCl [1]: 8 µM | MIC, Control [1]: 4 µM | MBC [2]: 8 µM | MIC [2]: 4 µM | MBC [3]: 2 µM | MIC [3]: 1 µM | MBC [4]: 8 µM | MIC [4]: 4 µM | MBC [5]: 16 µM | MIC [5]: 8 µM | MBC [6]: 8 µM | MIC [6]: 4 µM | MIC, FeCl3 [7]: 8 µM | MIC, NH4Cl [7]: 4 µM | MIC, ZnCl2 [7]: 4 µM | MIC, MgCl2 [7]: 4 µM | MIC, CaCl2 [7]: 4 µM | MIC, KCl [7]: 4 µM | MIC, NaCl [7]: 4 µM | MIC, Control [7]: 4 µM | MBC [8]: 4 µM | MIC [8]: 2 µM | GM, All [9]: 4.00 µM | TI, All [9]: 64.00 | MBC [10]: 16 µM | MIC [10]: 8 µM | MBC [11]: 4 µM | MIC [11]: 2 µM | MBC [12]: 32 µM | MIC [12]: 4 µM | GM, Gram-negative bacteria [13]: 5.88 µM | TI, Gram-negative bacteria [13]: 43.54 | GM, Gram-positive bacteria [14]: 2.44 µM | TI, Gram-positive bacteria [14]: 104.92 | MBC [15]: 4 µM | MIC [15]: 2 µM | MBC [16]: 8 µM | MIC [16]: 4 µM | MBC [17]: 4 µM | MIC [17]: 2 µM | MBC [18]: 32 µM | MIC [18]: 16 µM | MBC [19]: 16 µM | MIC [19]: 8 µM

Source: paper PMC7725003, “Systematically Studying the Optimal Amino Acid Distribution Patterns of the Amphiphilic Structure by Using the Ultrashort Amphiphiles” (Frontiers in Microbiology, 2020)
